# Results: patent US20260315564A1, “THE USE OF TP3 (THYMOPENTIN ANALOG) BY INCREASING THE ACTIVITY AND NUMBER OF T-CELLS INVOLVED IN THE DEFENSE MECHANISM OF THE IMMUNE SYSTEM OF MAMMALS, FOR THE PREVENTION OR TREATMENT OF DISEASES TO EXTEND THE AVERAGE LIFESPAN” (priority 2023, published 2026)
# Marks after values point to notes of the source that are not given here. Residues, ends and D or L forms follow the SMILES beside them.
# How the values were obtained:
# T cells = details: Schlesinger et al. 1978, in words; cited from earlier work
# [1] = system: plaque-forming cells (PFC); assay: Number of plaque-forming cells (PFC) in Balb/c nu/nu mice; format: in vivo; details: for number of plaque-forming cells (PFC): n = 8/group, control 55.7 (TP5), 53.0 (TP3)
# Method: (§1) 1.3./Determination of the number of plaque-forming cells (PFC) (using rat spleen cells) The chopped splenocytes were placed in a culture medium (Parker 199) and then shaken with a shaker for 1 minute. The cells were suctioned from the surface of the rapidly settling tissue debris. Red blood cells were removed osmotically. Cell suspensions were adjusted to 107/ml. The cell suspensions were mixed with a 15% BVVT cell suspension in a ratio of 2:1. PFC was determined with the mixture using a modified chamber technique according to Channingham et al., 1966). Before filling the chamber, 50 μl of fresh diluted guinea pig serum (1:20) was added. The chambers (2-2/slide) were incubated (370C 45′) after sealing with paraffin, the formed plaques were counted under a microscope (at 400× magnification) within 2 hours Marker tests related to the rejection reaction of an adult thymus-depleted mouse skin graft 1.4./Rejection of skin transplants in nude mice after treatment with TP fragments (Snell et al., Transplantation 5, 492, 1967).
# Mice were treated for 4 weeks 3 times a week (every other day) with TP fragments (10-9, 10-8, 10-7//10-3, 10-2, 10-1 M/animal ip. (Veys et al., 1983) at the end of the treatments ([…]), the mice were immunized (with 0.5 ml 1% BVVT suspension ip. The immune response was expressed in antibody titers as above).
# PFC = PFC cell count in aged mice; format: in vivo, aged mice (Balb/c); details: first value column under head 'PFC IgM/logx^2'; aged mice 18 months old; n = 8/group; young control 6.3, aged 3.7
# Method: as §1
# TP effect on antibody production and PFC cell count in aged mice (Balb/c)
# Anti-SRBC-Ab (IgM) = assay: Anti-SRBC-Ab titer (IgM) in newborn rats after 9x treatment (hemagglutination); format: in vivo, Hannover Wistar rats (newborn); details: 9x (3x3 weeks/ip), n = 12, control 6.3 (TP5), 5.2 (TP3)
# Method: Rats (Hannover Wistar) were treated (i.p.) within 6-12 hours after birth. Treatments after birth in a single session or in another examination • on the 7th day after the first treatment; • another group was vaccinated 3 times a week after the first day of […]. treatment • in a subsequent group treated over three weeks (9× in total) (10-3,10-5,10-7//10-9, 10-11,10-12, 10-13 M/animal, i.p). • in the fourth test series, the animals were treated with TP fragments at 0, 1, 2, 4, or 5 days of age. The rats were unanimously immunized on the 14th day after birth (1% BVVT with 0.5 ml cell suspension, i.p.). Immune responses were measured after 7 days on day 21 of the experiment.
# Rats (Hannover Wistar) were treated (i.p.) within 6-12 hours after birth. Treatments after birth in a single session or in another examination • on the 7th day after the first treatment; • another group was vaccinated 3 times a week after the first day of treatment. • in a subsequent group, the treatments took place over three weeks (9× in total) (10-3,10-5,10-7//10-9, 10-11,10-12,10-13 M/animal, i.p.). • in the fourth test series, the animals were treated with TP fragments at 0, 1, 2, 4, or 5 days of age. The rats were randomly immunized on the 14th day after birth (1% BVVT with 0.5 ml cell suspension, i.p.). Immune responses were measured after 7 days on day 21 of the experiment. 1.2. Determination of anti-BVVT Ab titers (from rat blood samples ex vivo) • with the haemagglutination method (Takátsy and Fürész, 1955) on 96-well plates (Flow). 50 ul of 0.9% NaCl solution was added to each well. The sera (50 μl) were diluted by half dilution in 12 steps, mixed with 25 pμl 2% BVVT cell suspension, and incubated (1 hour at 37 °C). The hemagglutination titers of the sera are determined. Values expressed in logarithmic values refer to total agglutination.
# [2] = system: tumour patients (metastatic melanoma); details: 26 studies, 2,736 patients, in words, cited from earlier work
# [3] = system: healthy human lymphocytes; assay: E-rosette test, ex vivo on healthy human cells; format: cell-based; parameters: effect ex vivo on healthy human cells (rosette-forming cells): unit not given here; details: for effect ex vivo on healthy human cells (rosette-forming cells): control 27.8 (TP5), 30.3 (TP3)
# Method: Blood from donors was used for our experiments, where the blood samples were used either from animals or human donors. The heparinized blood samples were separated on a (FicolUromiro/Pharmacia-Bracco) gradient (Boyum 1968). 2×10^6 and 107 lymphocytes/ml cells were tested in E-rosette tests, the blood donors were the following animals: • Rat: Hannover Wistar (Richter) newborn rats were used to study the maturation of the immune response. As our mothers, 12 (maximum) randomized newborns were placed (21±10C, humidity: min. 65%) in a test litter. • Guinea pig: Donkin-Hartley (Lati) 250-300 g male animals were included for the DTH reaction test. • 2.3.3/Mice: Mouse strains of different genetic backgrounds were used: CFLP (outbred) from the Lati stock), Balb/c (inbred) and Balb/c nu/nu mice from the SzBC/Szeged stock.
# In a preliminary study, the ED75 inhibitory effect of azathioprine was determined (Verhagen et al., 1980) and 500 μg/ml was used during the studies. An equal volume (200 μl) of activityinhibiting and isolated cell suspension and peptides ([…]) were measured. After 1 h (370C) incubation, the cell suspensions received 200 μl of 1% SRBC suspension and then centrifuged (90×g 5 minutes), 400 μl of the supernatant was aspirated.
# The number of rosette-forming cells was counted. The activity was determined as percent recovery (R %). […]
compound,measurement,setting,value
CC(C)[C@H](NC(=O)[C@H](CC(=O)O)NC(=O)[C@H](CCCCN)NC(=O)[C@@H](N)CCCN=C(N)N)C(=O)N[C@@H](Cc1ccc(O)cc1)C(=O)O [TP5] (H-RKDVY-OH),differentiation of T cells,T cells,induces the differentiation of T cells
same,number of plaque-forming cells (PFC),[1]; 10^-1 M/mouse (M/eger),76.5*
same,number of plaque-forming cells (PFC),[1]; 10^-2 M/mouse (M/eger),73.0*
same,number of plaque-forming cells (PFC),[1]; 10^-3 M/mouse (M/eger),67.4
same,increase in number of PFC cells,[1]; 10^-3 M/mouse/i.p.,35%
same,number of plaque-forming cells (PFC),[1]; 10^-6 M/mouse (M/eger),72.5*
same,number of plaque-forming cells (PFC),[1]; 10^-7 M/mouse (M/eger),71.0*
same,number of plaque-forming cells (PFC),[1]; 10^-8 M/mouse (M/eger),9.5
same,PFC,PFC,6.1*
same,Anti-SRBC-Ab titer (IgM),Anti-SRBC-Ab (IgM); 10^-3 M/animal,7.3 2 log
same,Anti-SRBC-Ab titer (IgM),Anti-SRBC-Ab (IgM); 10^-4 M/animal,8.2* 2 log
same,Anti-SRBC-Ab titer (IgM),Anti-SRBC-Ab (IgM); 10^-5 M/animal,8.6* 2 log
same,Anti-SRBC-Ab titer (IgM),Anti-SRBC-Ab (IgM); 10^-6 M/animal,7.5 2 log
same,Anti-SRBC-Ab titer (IgM),Anti-SRBC-Ab (IgM); 10^-9 M/animal,7.2 2 log
same,Anti-SRBC-Ab titer (IgM),Anti-SRBC-Ab (IgM); 10^-11 M/animal,10.7* 2 log
same,Anti-SRBC-Ab titer (IgM),Anti-SRBC-Ab (IgM); 10^-13 M/animal,7.9* 2 log
same,severe infections,[2]; in parallel with radiation or chemotherapy,promising results in reducing severe infections
same,number of survivors,[2],not significantly affected
same,effect ex vivo on healthy human cells (rosette-forming cells),[3]; 10^-5 mol/l,26.9
same,effect ex vivo on healthy human cells (rosette-forming cells),[3]; 10^-6 mol/l,24.4
same,effect ex vivo on healthy human cells (rosette-forming cells),[3]; 10^-7 mol/l,29.4
same,effect ex vivo on healthy human cells (rosette-forming cells),[3]; 10^-8 mol/l,27.1
same,effect ex vivo on healthy human cells (rosette-forming cells),[3]; 10^-9 mol/l,26.1
same,effect ex vivo on healthy human cells (rosette-forming cells),[3]; 10^-11 mol/l,25.5
same,effect ex vivo on healthy human cells (rosette-forming cells),[3]; 10^-12 mol/l,28.4
same,effect ex vivo on healthy human cells (rosette-forming cells),[3]; 10^-13 mol/l,25.9
same,effect ex vivo on healthy human cells (rosette-forming cells),[3]; 10^-14 mol/l,26.1
same,activity on lymphocytes from healthy individuals,[3]; in words,ineffective
